In US12116357B2, “Heteroaryl-triazole and heteroaryl-tetrazole compounds as pesticides” (Bayer Aktiengesellschaft, priority 2018, dated 2024):
Read-outs that look alike come from different tables or passages of the source. Values belong to the compound of their own block, whether it stands above or below them.

Legend:
[1] = log P by HPLC on reversed phase columns (EEC directive 79/831 Annex V.A8); format: physicochemical; settings: LC-UV, neutral range; for chromatographic logP: reversed phase HPLC column
[2] = system: Boophilus microplus; assay: Boophilus microplus injection test; format: in vivo; settings: Rhipicephalus microplus, 168 h, 20 μg/animal, egg deposition after 7 days, read-out: efficacy (infertile eggs)
Protocol: (§1) • Solvent: dimethyl sulfoxide
To produce a suitable preparation of active compound, 10 mg of active compound are dissolved in 0.5 ml solvent, and the concentrate is diluted with solvent to the desired concentration.
Five adult engorged female ticks (Boophilus microplus) are injected with 1 μl compound solution into the abdomen. The ticks are transferred into replica plates and incubated in a climate chamber.
After 7 days egg deposition of fertile eggs is monitored. Eggs where fertility is not visible are stored in a climate chamber till hatching after about 42 days. An efficacy of 100% means all eggs are infertile; 0% means all eggs are fertile.

[3] = system: Myzus persicae; assay: Myzus persicae oral test; format: in vivo; settings: 120 h
Protocol: • Solvent: 100 parts by weight acetone
To produce a suitable preparation of active compound, 1 part by weight of active compound is mixed with the stated amount of solvent, and the concentrate is diluted with water to the desired concentration. 50 μl compound solution is filled in microtiter plates and 150 μl IPL41 insect medium (33%+15% sugar) is added to obtain a total volume of 200 μl per well. Afterwards the plates are sealed with parafilm through which a mixed population of the green peach aphid (Myzus persicae) can suck on the compound preparation.
After 5 days mortality in % is determined. 100% means all aphids have been killed and 0% means none of the aphids have been killed.

[4] = system: Phaedon cochleariae; assay: Phaedon cochleariae spray test; format: in vivo; settings: 168 h, after 7 days
Protocol: (§2) • Solvent: 78.0 parts by weight of acetone • 1.5 parts by weight of dimethylformamide • Emulsifier: alkylarylpolyglycol ether
(§3) To produce a suitable preparation of active compound, 1 part by weight of active compound is mixed with the stated amount of solvents and is diluted with water, containing an emulsifier concentration of 1000 ppm, to the desired concentration. Further test concentrations are prepared by dilution with emulsifier containing water.
Chinese cabbage (Brassica pekinensis) leaf disks are sprayed with a preparation of the active ingredient of the desired concentration. Once dry, the leaf disks are infested with mustard beetle larvae (Phaedon cochleariae).
After 7 days mortality in % is determined. 100% means all beetle larvae have been killed and 0% means none of the beetle larvae have been killed.

[5] = system: Spodoptera frugiperda; assay: Spodoptera frugiperda spray test; format: in vivo; settings: 168 h
Protocol: • Solvent: 78.0 parts by weight acetone • 1.5 parts by weight dimethylformamide • Emulsifier: alkylarylpolyglycol ether
as §3
Maize (Zea mays) leaf sections are sprayed with a preparation of the active ingredient of the desired concentration. Once dry, the leaf sections are infested with fall armyworm larvae (Spodoptera frugiperda).
After 7 days mortality in % is determined. 100% means all caterpillars have been killed and 0% means none of the caterpillars have been killed.

[6] = system: Ctenocephalides felis; assay: Ctenocephalides felis oral test; format: in vivo; settings: 48 h, 100 ppm in cattle blood, after 2 days
Protocol: as §1
To produce a suitable preparation of active compound, 10 mg of active compound are dissolved in 0.5 ml solvent, and the concentrate is diluted with cattle blood to the desired concentration.
Approximately 20 adult unfed cat fleas (Ctenocephalides felis) are placed in flea chambers. The blood chamber, sealed with parafilm on the bottom, are filled with cattle blood supplied with compound solution and placed on the gauze covered top of the flea chamber, so that the fleas are able to suck the blood. The blood chamber is heated to 37° C. whereas the flea chamber is kept at room temperature.
After 2 days mortality in % is determined. 100% means all the fleas have been killed; 0% means none of the fleas have been killed.

[7] = system: Nezara viridula; assay: Nezara viridula spray test; format: in vivo; settings: 96 h
Protocol: as §2
as §3, with “solvent,” for “solvents”, “and the concentrate” for “and”
Barley plants (Hordeum vulgare) infested with larvae of the southern green stink bug (Nezara viridula) are sprayed with a test solution containing the desired concentration of the active ingredient.
After 4 days mortality in % is determined. 100% means all the stink bugs have been killed; 0% means none of the stink bugs have been killed.

[8] = system: Aedes aegypti strain MONHEIM; assay: Aedes aegypti test (surface treatment & contact assay); format: in vivo; settings: 24 hours after contact, read-out: efficacy (mortality); for mortality at 20 mg/m2: surface concentration 20 mg/m^2, 30 min exposure
Protocol: (§4) • Solvent: Aceton+2000 ppm rapeseed oil methyl ester (RME)
(§5) In order to produce a sufficient, active ingredient containing solution it is necessary to solve the test compound in the solvent-mix (acetone at 2 mg/ml/RME 2000 ppm). This solution is pipetted onto a glazed tile and after evaporation of the acetone, adult mosquitoes of the species Aedes aegypti strain MONHEIM are placed onto the dried surface. The exposure time is 30 minutes.
(§6) Mortality in percent (%) is determined 24 hours after contact of the insects to the treated surface. 100% mortality means that all tested insects are dead, whereas 0% means that no insect died.

[9] = system: Nilaparvata lugens; assay: Nilaparvata lugens spray test; format: in vivo; settings: 96 h
Protocol: as §2, §3
Rice plants (Oryza sativa) are sprayed with a preparation of the active ingredient of the desired concentration and the plants are infested with the brown planthopper (Nilaparvata lugens).
After 4 days mortality in % is determined. 100% means all planthoppers have been killed and 0% means none of the planthoppers have been killed.

[10] = system: Ctenocephalides felis; assay: Ctenocephalides felis in-vitro contact test, adult cat flea; format: in vivo; settings: 5 μg/cm^2, after 48 hours, read-out: efficacy (fleas dead or moribund)
Protocol: 9 mg compound is solved in 1 ml acetone and diluted with acetone to the desired concentration. 250 μl of the test solution is filled in 25 ml glass test tubes and homogeneously distributed on the inner walls by rotation and tilting on a shaking device (2 h at 30 rpm). With a compound concentration of 900 ppm, an inner surface of 44.7 cm^2 and a homogeneous distribution, a dose of 5 μg/cm^2 is achieved.
After the solvent has evaporated, each test tube is filled with 5-10 adult cat fleas (Ctenocephalides felis), closed with a perforated lid and incubated in a lying position at room temperature and relative humidity. After 48 hours efficacy is determined. The fleas are patted on the ground of the tubes and are incubated on a heating plate at 45-50° C. for at most 5 minutes. Immotile or uncoordinated moving fleas, which are not able to escape the heat by climbing upwards, are marked as dead or moribund.
An efficacy of 100% means all fleas are dead or moribund; 0% means no fleas are dead or moribund.

[11] = system: Musca domestica strain WHO-N; assay: Musca domestica test (surface treatment & contact assay); format: in vivo; settings: 24 hours after contact, read-out: efficacy (mortality)
Protocol: as §4
as §5, with “flies” for “mosquitoes”, “Musca domestica” for “Aedes aegypti”, “WHO-N” for “MONHEIM”
as §6

[12] = 0.001 molar ammonium acetate in water and acetonitrile (table footnote), read-out: LogP^[a]
[13] = surface concentration 4 mg/m^2, 30 min exposure

chromatographic logP [1, 12]: 0.66
Structure (SMILES): CC(NCC1CCOC1)c1ncnn1-c1ncccn1 (stereo not shown) [a-013]

chromatographic logP [1, 12]: 0.42
Structure (SMILES): CONC(C)c1ncnn1-c1ncccn1 (stereo not shown) [a-024]

chromatographic logP [1, 12]: 1.9
Structure (SMILES): CC(NCC1(c2ccccc2)CC1)c1ncnn1-c1ncccn1 (stereo not shown) [a-005]

Structure (SMILES): CC(c1ncnn1-c1ncccn1)N(Cc1cccnc1)C(=O)c1cc(Cl)cc(C(F)(F)F)c1 (stereo not shown) [Example I-019]
pest or weed control at 0.02 mg [2]: 100%
mortality at 4 ppm [3]: 100%
mortality at 20 ppm [3]: 100%
mortality at 500 g/ha [4]: 100%
mortality at 500 g/ha [5]: 100%
mortality at 100 ppm [6]: 90%
mortality at 500 g/ha [7]: 100%
mortality at 20 mg/m2 [8]: 90 to 100%
mortality at 500 g/ha [9]: 100%

chromatographic logP [1, 12]: 1.73
Structure (SMILES): CC(NCC1(C)CC1)c1ncnn1-c1ncccn1 (stereo not shown) [a-010]

chromatographic logP [1, 12]: 2.03
Structure (SMILES): CC(NCC1CCCCC1)c1ncnn1-c1ncccn1 (stereo not shown) [a-016]

chromatographic logP [1, 12]: 0.68
Structure (SMILES): CC(NCc1cccnc1)c1ncnn1-c1ncccn1 (stereo not shown) [a-019]

chromatographic logP [1, 12]: 0.26
Structure (SMILES): CC(NC1COC1)c1ncnn1-c1ncccn1 (stereo not shown) [a-021]

Structure (SMILES): CC(c1ncnn1-c1ncccn1)N(CC1(C)CC1)C(=O)c1cc(Cl)cc(C(F)(F)F)c1 (stereo not shown) [Example I-009]
pest or weed control at 0.02 mg [2]: 80%
mortality at 4 ppm [3]: 100%
mortality at 20 ppm [3]: 100%
mortality at 500 g/ha [4]: 100%
mortality at 500 g/ha [5]: 100%
mortality at 100 ppm [6]: 100%
mortality at 500 g/ha [7]: 100%

chromatographic logP [1, 12]: 0.53
Structure (SMILES): CC(NCc1ccncc1)c1ncnn1-c1ncccn1 (stereo not shown) [a-014]

Structure (SMILES): CC(c1ncnn1-c1ncccn1)N(C(=O)c1cc(Cl)cc(C(F)(F)F)c1)C1CSC1 (stereo not shown) [Example I-024]
mortality at 4 ppm [3]: 100%
mortality at 20 ppm [3]: 100%
mortality at 500 g/ha [4]: 100%
pest or weed control at 5 µg/cm2 [10]: 100%
mortality at 100 ppm [6]: 100%
mortality at 500 g/ha [7]: 100%
mortality at 500 g/ha [9]: 100%

LogP^[a] ([1]; 0.001 molar ammonium acetate in water and acetonitrile (table footnote)): 0.66
Structure (SMILES): CC(NCC1CCOC1)c1ncnn1-c1ncccn1 (stereo not shown) [a-015]

Structure (SMILES): CC(NCc1ccccn1)c1ncnn1-c1ncccn1 (stereo not shown) [a-001, N-(pyridin-2-ylmethyl)-1-[1-(pyrimidin-2-yl)-1H-1,2,4-triazol-5-yl]ethanamine]
chromatographic logP [1, 12]: 0.72
chromatographic logP ([1]; 0.001 molar ammonium acetate in water and acetonitrile, read-out: log P^[b]): 0.77

Structure (SMILES): COc1ccc(CN(C(=O)c2cc(Cl)cc(C(F)(F)F)c2)C(C)c2ncnn2-c2ncccn2)cc1 (stereo not shown) [Example I-020]
pest or weed control at 0.02 mg [2]: 80%
mortality at 20 ppm [3]: 100%
mortality at 100 ppm [6]: 100%
mortality at 500 g/ha [7]: 100%

chromatographic logP [1, 12]: 1.65
Structure (SMILES): CSCCNC(C)c1ncnn1-c1ccc(C#N)cn1 (stereo not shown) [a-025]

chromatographic logP [1, 12]: 0.53
Structure (SMILES): CC(NCC1OCCO1)c1ncnn1-c1ncccn1 (stereo not shown) [a-022]

chromatographic logP [1, 12]: 0.8
Structure (SMILES): CC(NCC1CCCO1)c1ncnn1-c1ncccn1 (stereo not shown) [a-012]

Structure (SMILES): CC(c1ncnn1-c1ncccn1)N(Cc1ccc(C#N)cc1)C(=O)c1cc(Cl)cc(C(F)(F)F)c1 (stereo not shown) [Example I-018]
pest or weed control at 0.02 mg [2]: 90%
mortality at 4 ppm [3]: 100%
mortality at 20 ppm [3]: 100%
mortality at 500 g/ha [4]: 100%
mortality at 4 mg/m2 [11, 13]: 90 to 100%
mortality at 20 mg/m2 ([11]; surface concentration 20 mg/m^2, 30 min exposure): 90 to 100%
mortality at 500 g/ha [5]: 100%
mortality at 100 ppm [6]: 100%
mortality at 500 g/ha [7]: 100%
mortality at 4 mg/m2 [8, 13]: 80 to 100%
mortality at 20 mg/m2 [8]: 90 to 100%
